The source of these data is patent US6906198B1, “Antipicornaviral compounds, their preparation and use” (Agouron Pharmaceuticals, Inc., priority 1998, dated 2005).

Data set [1] can be described thus: Cytotoxicity in uninfected H1-HeLa cells (anticoxsackieviral assay, XTT). In kind it is cell-based. The note with it: human; 50% cytotoxic dose, uninfected H1-HeLa cells (Table 4). The procedure:
(§1) Coxsackievirus types A-21 (CAV-21) and B3 (CVB-3) were purchased from American Type Culture Collection (ATCC, Rockville, Md.). Virus stocks were propagated and antiviral assays were performed in H1-HeLa cells (ATCC). Cells were grown in minimal essential medium with 10% fetal bovine serum (Life Technologies, Gaithersburg, Md.).
(§2) The ability of compounds to protect cells against either CAV-21 or CVB-3 infection was measured by the XTT dye reduction method. This method is described in Weislow et al., J. Natl. Cancer Inst. 1989, vol. 81, 577-586. H1-HeLa cells were infected with CAV-21 or CVB-3 at a multiplicity of infection (m.o.i.) of 0.025 or 0.075, respectively, or mock-infected with medium only. H1-HeLa cells were plated at 4×10^4 cells per well in a 96-well plate and incubated with appropriate concentrations of the test compound. One day (CVB-3) or two days (CAV-21) later, XTT/PMS was added to test plates and the amount of formazan produced was quantified spectrophotometrically at 450/650 nm. The EC50 was calculated as the concentration of compound that increased the formazan production in compound-treated, virus-infected cells to 50% of that produced by compound-free, uninfected cells. The 50% cytotoxic dose (CC50) was calculated as the concentration of compound that decreased formazan production in compound-treated, uninfected cells to 50% of that produced in compound-free, uninfected cells. The therapeutic index (TI) was calculated by dividing the CC50 by the EC50.

Data set [2] in a line: Cytotoxicity in mock-infected H1-HeLa cells (antirhinoviral assay, XTT). In kind it is cell-based. The following applies: human, 50% cytotoxic dose. The protocol:
(§3) H1-HeLa cells were infected with HRV-14 at a multiplicity of infection (m.o.i.) of 0.13 (virus particles/cell) or mock-infected with medium only. Infected or mock-infected cells were resuspended at 8×10^5 cells per mL, and incubated with appropriate concentrations of the compounds to be tested. Two days later, XTT/PMS was added to test plates and the amount of formazan produced was quantified spectrophotometrically at 450/650 nm. The EC50 value was calculated as the concentration of compound that increased the percentage of formazan production in compound-treated, virus-infected cells to 50% of that produced by compound-free, mock-infected cells. The 50% cytotoxic dose (CC50) was calculated as the concentration of compound that decreased the percentage of formazan produced in compound-treated, mock-infected cells to 50% of that produced by compound-free, mock-infected cells. The therapeutic index (TI) was calculated by dividing the CC50 value by the EC50 value.
(§4) All strains of human rhinovirus (HRV) for use in this assay were purchased from American Type Culture Collection (ATCC), except for HRV serotype-14 (produced from the infectious cDNA clone constructed by Dr. Robert Rueckert, Institute for Molecular Virology, University of Wisconsin, Madison, Wis.). HRV stocks were propagated and viral assays were performed in H1-HeLa cells (ATCC). Cells were grown in minimal essential medium with 10% fetal bovine serum, available from Life Technologies (Gaithersburg, Md.).
On the technique in general: Formazan colour is commonly taken as a measure of viable cells.

Data set [3] in a line: Cytotoxicity in uninfected MRC-5 cells (anti-echoviral/-enteroviral assay, XTT). In kind it is cell-based. The following applies: human, 50% cytotoxic dose. The protocol: Echovirus type 11 (EV 11) and enterovirus type 70 (EV 70) were purchased from ATCC (Rockville, Md.). Virus stocks were propagated and antiviral assays were performed in MRC-5 cells (ATCC). Cells were grown in minimal essential medium with 10% fetal bovine serum (Life Technologies, Gaithersburg, Md.).
The ability of compounds to protect cells against either EV 11 or EV 70 infection was measured by the XTT dye reduction method (Weislow et al., J. Natl. Cancer Inst. 1989, vol. 81, 577-586). MRC-5 cells were infected with EV 11 or EV 70 at an m.o.i. of 0.003 or 0.004, respectively, or mock-infected with medium only. Infected or uninfected cells were added at 1×10^4 cells per well and incubated with appropriate concentrations of compound. Four days later, XTT/PMS was added to test plates, and the amount of formazan produced was quantified spectrophotometrically at 450/650 nm. The EC50 was calculated as the concentration of compound that increased the formazan production in compound-treated, virus-infected cells to 50% of that produced by compound-free, uninfected cells. The 50% cytotoxic dose (CC50) was calculated as the concentration of compound that decreased formazan production in compound-treated, uninfected cells to 50% of that produced in compound-free, uninfected cells. The therapeutic index (TI) was calculated by dividing the CC50 by the EC50.

A further data set concerns HRV-14. The experiment in a line: Antirhinoviral H1-HeLa cell culture assay (XTT), HRV-14. In kind it is cell-based, human rhinovirus. The following applies: HRV serotype-14, H1-HeLa cells (Table 3); read-out: EC50. The protocol: Antirhinoviral H1-HeLa Cell Culture Assay
In this cell protection assay, the ability of compounds to protect cells against HRV infection was measured by the XTT dye reduction method, which is described in Weislow et al., J. Natl. Cancer Inst. 1989, vol. 81, 577-586.
as §3, §4
The compounds were tested against control compounds WIN 51711, WIN 52084, and WIN 54954 (obtained from Sterling-Winthrop Pharmaceuticals), Pirodavir (obtained from Janssen Pharmaceuticals), and Pleconaril (prepared according to the method described in Diana et al., J. Med. Chem 1995, vol. 38, 1355). Antiviral data obtained for the test compounds are shown in Tables 1 and 3, where all data are for HRV serotype-14 unless otherwise noted in parentheses.

The test system of data set [4] is H1-HeLa cells. Put plainly: Cytotoxicity in mock-infected H1-HeLa cells (antirhinoviral assay, XTT). The following applies: 50% cytotoxic dose. In kind it is cell-based. The protocol:
as §3, §4

For data set [5], the system named is Coxsackievirus type A-21 (CAV-21). The experiment in a line: Anticoxsackieviral cell culture assay (XTT), CAV-21. In kind it is cell-based. The following applies: CAV-21, H1-HeLa cells; read-out: EC50. The protocol: (§5) Anticoxsackieviral Cell Culture Assay
as §1
as §2, with “The 50% cytotoxic dose (CC50) was calculated as the concentration of compound that decreased formazan production in compound-treated, uninfected cells to 50% of that produced in compound-free, uninfected cells.” left out, “EC50. […]” for “EC50.”

The test system of data set [6] is Coxsackievirus type B3 (CVB-3). The experiment in a line: Anticoxsackieviral cell culture assay (XTT), CVB-3. In kind it is cell-based. The note with it: CVB-3, H1-HeLa cells; read-out: EC50. The protocol:
as §5, §1
as §2, with “The 50% cytotoxic dose (CC50) was calculated as the concentration of compound that decreased formazan production in compound-treated, uninfected cells to 50% of that produced in compound-free, uninfected cells.” left out, “EC50. […]” for “EC50.”

The subject of data set [7] is H1-HeLa cells. The experiment in a line: Cytotoxicity in uninfected H1-HeLa cells (anticoxsackieviral assay, XTT). The following applies: 50% cytotoxic dose, uninfected H1-HeLa cells (Table 4). In kind it is cell-based. The procedure:
as §1, §2

The CC50 is the concentration that lowers cell viability or growth by half. Low readings indicate greater toxicity to the cells, high ones lower toxicity to the cells. In data set [1], `CCOC(=O)c1ccc(OCCC2CCN(c3ccc(C)nn3)CC2)cc1` [Pirodavir, reference compound] registered a 50% cytotoxic concentration (CC50) greater than 100 µM. For the same molecule, the CC50 at 2 days in data set [2] is greater than 10 µM. The same molecule returned a CC50 at 4 days in data set [3] greater than 10 µM.
For the molecule `Cc1cc(CCCOc2c(C)cc(-c3noc(C(F)(F)F)n3)cc2C)on1` [Pleconaril, reference compound], the CC50 in data set [1] was greater than 10 µM. This molecule gave a CC50 at 2 days in data set [2] greater than 10 µM. The same molecule had a CC50 at 4 days in data set [3] greater than 10 µM.
As usually defined, the EC50 is the concentration needed to bring the measured effect to its halfway point. As to `Cc1cc(CCCCCCCOc2ccc(C3=NCCO3)cc2)on1` [WIN 51711, reference compound], in the data set on HRV-14, the EC50 is 0.78 µM. In the data set with H1-HeLa cells [4], this molecule showed a 50% cytotoxic concentration (CC50) greater than 60 µM.
The like results for `Cc1cc(CCCCCCCOc2ccc(C3=N[C@@H](C)CO3)cc2)on1` [WIN 52084, reference compound] were, in that order, 0.07 µM and greater than 10 µM.
As for `Cc1cc(CCCCCOc2c(Cl)cc(C3=NCCO3)cc2Cl)on1` [WIN 54954, reference compound], the EC50 in data set [5] was greater than 100 µM; in the data set with HRV-14 it was 2.13 µM; in data set [6], greater than 100 µM. For the same molecule, the results for the CC50 in the data set with H1-HeLa cells [7] and with H1-HeLa cells [4] were greater than 100 µM and greater than 63 µM, respectively.
